Measurements from patent US8415376B2, “Inhibitors of PI3 kinase” (Amgen Inc., priority 2008, dated 2013).

Columns and labels:
[1] = system: phosphorylation of Akt at Serine 473; assay: pAkt AlphaScreen (U87 cell); format: cell-based; conditions: Homo sapiens, U-87 MG; U87 MG cells, pAkt Ser473; average
Method: pAkt Alphascreen (U87 Cell)
The pAkt AlphaScreen® assay (PerkinElmer, Waltham, Mass.) determines whether there is phosphorylation of Akt at Serine 473 by recruitment of a phosphospecific antibody. This assay was performed using U87 MG cells. The U87 growth media consists of MEM (Gibco, Carlsbad, Calif.) supplemented with 10% FBS (Gibco,), 1× Non-Essential Amino Acids (Gibco,) and 1× Penicillin/Streptomycin/Glutamine (Gibco). The cells were maintained weekly using 0.05% Trypsin (Gibco) and replated in 150 mm TC-Treated Culture Dishes (Corning, Corning, N.Y.).
The first day of the assay, the adherent cells were trypsinized, media was added to the loose cells and cells were mixed to a homogenous mixture. 0.5 ml of the homogenous mixture was counted on the Beckman Coulter® Vi-CELL™ XR (Fullerton, Calif.). 50 frames of cells were counted and the number of viable cells was determined. The cells were then diluted to 0.25 million cells per ml, and centrifuged at 200 rcf for 5 minutes. The media was removed and the cells were reconstituted in fresh media for plating. The cells were plated at 20 μl per well on the PerkinElmer® FlexDrop PLUS in Low Volume 384 Well White Tissue Culture Plates (Corning) with a final cell density of 5K cells per well. The plates were incubated overnight at 37° Celsius, 5% CO2.
On the second day, the compound plates were prepared, the cells were treated with compound and the pAkt reaction mix was added to the cell lysate. 384 well compound plates were prepared containing 1 μl of compound per well starting at 5 mM and diluted 1:2 across the row, resulting in a 22 well serial dilution. 39 μl of growth media was added to the compound plate in rows 1-22 using the PerkinElmer® FlexDrop PLUS resulting in a DMSO concentration of 2.5%. The cell plates and diluted compound plates were put onto the VELOCITY11™ VPREP™ 384 ST where the compound plate was mixed and 5 μl of serially diluted compound or controls was added to the cell plate. The final concentration of the compounds was 25 μM serially diluted to 11.9 pM in 0.5% DMSO. The cell plates were then incubated with compound for two hours at 37° Celsius, 5% CO2. After two hours, the media in the cell plates was aspirated using the BioTek® ELx405HT plate washer (Winooski, Vt.) removing the majority of media and compound without disturbing the adherent U87 cells. The following assay reagents are components of the SureFire® Akt (Ser 473) Phosphorylation 50K Point Kit (TGR BioSciences, Adelaide, Austalia) and an IgG Detection Kit (PerkinElmer, Waltham, Mass.). 5 μl of 1× Lysis Buffer was added to each well using the PerkinElmer® FlexDrop PLUS. The plates were then incubated at room temperature on a shaker for ten minutes. The AlphaScreen® reaction was prepared under low light conditions (subdued or green light) including p-Akt (Ser 473) Reaction Buffer, Dilution Buffer, Activation Buffer, Acceptor Beads and Donor Beads at a ratio of 40:20:10:1:1 respectively. The AlphaScreen® reaction was added to the cell lysate at 6 μl per well using the PerkinElmer® FlexDrop PLUS. The plates were placed in a humid environment to reduce edge effects and incubated overnight at room temperature with restricted air flow in the dark.
On the final day of the experiment, the plates were read on the PerkinElmer® EnVision™ 2103 Multilable Reader using the standard AlphaScreen® readout. The POC is calculated and the data is analyzed to report the IC50 IP for pAkt at Serine 473.
Activity data for the compounds tested in the PI3K cell based Akt assay is provided in Table 2 under the column heading U87

[2] = target: T1, PI3Kα (Homo sapiens, UniProt P42336); assay: In vitro PI3K AlphaScreen assay; format: biochemical; conditions: average if run more than once
T1 construct: Full length p110 subunits of PI3K α, β and δ, N-terminally labeled with polyHis tag; polyHis (N); made in house; host or cells: Sf9 insect cells (baculovirus)
T1 sequence (P42336 whole entry): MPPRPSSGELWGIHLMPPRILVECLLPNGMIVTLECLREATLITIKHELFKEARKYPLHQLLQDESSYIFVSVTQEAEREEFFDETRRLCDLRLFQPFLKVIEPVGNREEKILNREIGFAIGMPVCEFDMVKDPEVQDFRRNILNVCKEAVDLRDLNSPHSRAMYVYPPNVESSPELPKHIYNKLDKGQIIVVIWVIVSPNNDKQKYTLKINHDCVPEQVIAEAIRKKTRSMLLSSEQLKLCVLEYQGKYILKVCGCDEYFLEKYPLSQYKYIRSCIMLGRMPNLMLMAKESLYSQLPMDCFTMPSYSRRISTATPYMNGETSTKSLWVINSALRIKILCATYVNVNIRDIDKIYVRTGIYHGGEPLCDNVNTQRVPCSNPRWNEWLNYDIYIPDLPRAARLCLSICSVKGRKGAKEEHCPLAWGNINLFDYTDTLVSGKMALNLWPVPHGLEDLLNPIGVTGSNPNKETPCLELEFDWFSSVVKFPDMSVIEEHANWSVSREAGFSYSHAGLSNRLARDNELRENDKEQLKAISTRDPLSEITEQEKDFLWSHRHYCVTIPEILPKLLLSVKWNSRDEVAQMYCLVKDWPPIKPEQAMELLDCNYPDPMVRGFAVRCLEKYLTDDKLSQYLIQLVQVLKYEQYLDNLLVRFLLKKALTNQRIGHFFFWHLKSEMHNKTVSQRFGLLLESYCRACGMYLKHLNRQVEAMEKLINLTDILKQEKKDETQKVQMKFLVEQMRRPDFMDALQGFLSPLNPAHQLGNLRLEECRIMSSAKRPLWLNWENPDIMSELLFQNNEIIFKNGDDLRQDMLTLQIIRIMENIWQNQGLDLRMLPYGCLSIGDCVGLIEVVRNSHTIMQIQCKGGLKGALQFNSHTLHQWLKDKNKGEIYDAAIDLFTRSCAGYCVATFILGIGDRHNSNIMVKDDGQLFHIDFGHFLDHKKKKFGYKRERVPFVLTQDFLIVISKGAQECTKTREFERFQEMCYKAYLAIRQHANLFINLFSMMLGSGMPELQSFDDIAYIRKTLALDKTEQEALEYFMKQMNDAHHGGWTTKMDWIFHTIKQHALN
T1 sequence (P27986 whole entry partner): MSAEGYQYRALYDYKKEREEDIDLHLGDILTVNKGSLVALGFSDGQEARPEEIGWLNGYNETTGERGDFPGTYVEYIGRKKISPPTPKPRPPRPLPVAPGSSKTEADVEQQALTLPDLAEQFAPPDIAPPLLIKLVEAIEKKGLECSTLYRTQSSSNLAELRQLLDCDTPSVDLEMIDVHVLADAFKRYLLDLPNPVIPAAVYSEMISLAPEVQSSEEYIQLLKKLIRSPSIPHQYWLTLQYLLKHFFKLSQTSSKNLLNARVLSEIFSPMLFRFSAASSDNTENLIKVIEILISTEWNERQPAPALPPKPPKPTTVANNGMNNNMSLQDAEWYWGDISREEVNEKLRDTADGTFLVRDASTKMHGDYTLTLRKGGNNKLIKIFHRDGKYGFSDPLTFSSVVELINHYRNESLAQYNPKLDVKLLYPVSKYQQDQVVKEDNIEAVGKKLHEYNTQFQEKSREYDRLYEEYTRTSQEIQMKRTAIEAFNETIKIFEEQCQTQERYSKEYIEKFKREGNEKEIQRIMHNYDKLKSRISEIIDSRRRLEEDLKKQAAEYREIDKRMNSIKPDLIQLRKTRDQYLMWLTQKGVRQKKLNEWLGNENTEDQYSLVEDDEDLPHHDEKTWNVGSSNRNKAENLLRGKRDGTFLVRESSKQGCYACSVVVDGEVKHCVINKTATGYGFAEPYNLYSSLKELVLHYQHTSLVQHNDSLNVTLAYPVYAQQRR
Method: In Vitro PI3K Alphascreen® Assay
The PI3K AlphaScreen® assay (PerkinElmer, Waltham, Mass.) measures the activity of a panel of four phosphoinositide 3-kinases: PI3Kα, PI3Kβ, PI3Kγ, and PI3Kδ. Each of these enzymes phosphorylates the 3′-hydroxyl group on phosphatidylinositiol (4,5)-bisphosphate (PIP2) to produce phosphatidylinositol (3,4,5)-trisphosphate (PIP3). This phosphorylation activity is measured using a GST-tagged PIP3 binding protein (Echelon Biosciences, Salt Lake City, Utah), an anti-GST-tagged Acceptor bead, and streptavidin-Donor bead. […] In the absence of this interaction, proximity of the Donor and Acceptor beads is decreased, producing a loss of luminescent signal which is inversely proportional to PI3K activity.
The enzyme reaction buffer is made using sterile water (Baxter, Deerfield, Ill.) and 50 mM Tris HCl pH 7, 14 mM MgCl2, 2 mM sodium cholate, and 100 mM NaCl. 2 mM DTT is added fresh the day of the experiment. The AlphaScreen® reaction buffer is made using sterile water and 10 mM Tris HCl pH 7.5, 150 mM NaCl, 0.10% Tween 20, and 30 mM EDTA. 1 mM DTT is added fresh the day of the experiment.
The source plates for this assay are 384-well Greiner clear polypropylene plates containing test compounds at 5mM and diluted 1:2 over 22 points. […] Source plates are replicated into 384-well Optiplates (PerkinElmer, Waltham, Mass.), 0.5 μL/well, to make assay-ready plates.
The different PI3K isoforms are each diluted in enzyme reaction buffer to 2× working solutions. […] Two different 2× substrate solutions are made in enzyme reaction buffer. In one solution, PI(4,5)P2 (Echelon Biosciences, Salt Lake City, Utah) is diluted to 10 μM and ATP is diluted to 20 μM. This solution is used in the assays testing PI3Kα and PI3Kβ. In a second solution, PI(4,5)P2 is diluted to 10 μM and ATP is diluted to 8 μM. This solution used in the assays testing PI3Kγ and PI3Kδ.
The AlphaScreen® reaction solutions are made using beads from the anti-GST AlphaScreen® kit (PerkinElmer, Waltham, Mass.). Two solutions are made in Alphascreen reaction buffer to 4× working concentrations. In one solution, biotinylated-IP4 (Echelon Biosciences, Salt Lake City, Utah) is diluted to 40 nM and streptavadin-Donor Beads are diluted to 80 μg/mL. In the second solution, PIP3-binding protein (Echelon Biosciences, Salt Lake City, Utah) is diluted to 40 nM and anti-GST-Acceptor Beads are diluted to 80 μg/mL. 10 μL/well of enzyme reaction buffer is added to Column 24 of the assay ready plates in place of enzyme. This is done for plates in the PI3Kα, β, and 67 assays.
Using a 384-well dispensing Multidrop (Titertek, Huntsville, Ala.), 10 μL/well of 2× enzyme (PI3Kα, β, δ) is added to Columns 1-23 of the appropriate assay ready plates (for PI3Kγ 10 μL is added to Columns 1-24). 10 μL/well of the appropriate substrate solution (the solution with 20 μM ATP for PI3Kα and β assays, and the solution with 8 μM ATP for PI3Kγ and δ assays) is then added to Columns 1-24 of the plates. Plates are then incubated at room temperature for 20 minutes.
In the dark, 10 μL/well of the Donor Bead solution is added to Columns 1-24 of the plates to quench the enzyme reaction. The plates are incubated at room temperature for 30 minutes. Still in the dark, 10 μL/well of the Acceptor Bead solution is also added to Columns 1-24 of the plates. The plates are then incubated in the dark for 1.5 hours. The plates are read on an Envision Multilabel Plate Reader (PerkinElmer, Waltham, Mass.) with a 680 nm excitation filter and a 520-620 nm emission filter.

[3] = target: T2, mTOR (Homo sapiens, UniProt P42345); assay: In vitro mTOR assay (Lanthascreen); format: biochemical; conditions: average if run more than once
T2 construct: purchased Invitrogen (Carlsbad, Calif.)
T2 sequence (P42345 1360-2549 limits assumed): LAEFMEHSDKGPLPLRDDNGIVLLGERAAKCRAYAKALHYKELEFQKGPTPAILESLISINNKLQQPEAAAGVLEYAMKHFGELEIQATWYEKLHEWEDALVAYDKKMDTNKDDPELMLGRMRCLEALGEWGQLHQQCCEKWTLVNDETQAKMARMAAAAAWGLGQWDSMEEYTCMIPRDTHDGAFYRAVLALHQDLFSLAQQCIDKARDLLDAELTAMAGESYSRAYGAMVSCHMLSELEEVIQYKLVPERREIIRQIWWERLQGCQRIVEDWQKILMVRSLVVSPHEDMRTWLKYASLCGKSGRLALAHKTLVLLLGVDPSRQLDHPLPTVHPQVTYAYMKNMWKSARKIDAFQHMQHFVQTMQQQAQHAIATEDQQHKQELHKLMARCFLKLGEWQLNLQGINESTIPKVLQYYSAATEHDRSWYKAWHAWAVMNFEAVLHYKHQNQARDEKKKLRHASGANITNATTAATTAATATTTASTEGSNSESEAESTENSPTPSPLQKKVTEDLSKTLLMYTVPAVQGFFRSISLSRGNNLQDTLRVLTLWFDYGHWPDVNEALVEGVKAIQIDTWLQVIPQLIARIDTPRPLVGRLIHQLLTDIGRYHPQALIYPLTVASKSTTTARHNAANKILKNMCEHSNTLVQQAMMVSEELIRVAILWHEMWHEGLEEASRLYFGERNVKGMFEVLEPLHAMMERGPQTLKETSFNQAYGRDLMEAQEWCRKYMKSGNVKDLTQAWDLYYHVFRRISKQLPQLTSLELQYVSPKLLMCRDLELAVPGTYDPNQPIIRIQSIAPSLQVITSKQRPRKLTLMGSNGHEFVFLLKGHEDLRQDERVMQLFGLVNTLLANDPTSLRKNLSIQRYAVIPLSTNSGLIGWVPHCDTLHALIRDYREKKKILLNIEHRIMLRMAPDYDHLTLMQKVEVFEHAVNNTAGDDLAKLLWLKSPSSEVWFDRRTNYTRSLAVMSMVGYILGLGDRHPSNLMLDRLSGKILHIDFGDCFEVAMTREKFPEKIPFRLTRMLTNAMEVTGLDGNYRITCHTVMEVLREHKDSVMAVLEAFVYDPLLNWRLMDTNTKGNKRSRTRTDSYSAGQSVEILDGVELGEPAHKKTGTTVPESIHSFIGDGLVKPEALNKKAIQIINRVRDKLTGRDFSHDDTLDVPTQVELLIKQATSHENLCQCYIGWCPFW
How it was run: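 mTOR activity measured by TR-FRET as Thr46 phosphorylation of GFP-4E-BP1, detected with Tb-labelled anti-phospho-4E-BP1 [T46] antibody after EDTA stop. Final 50 ng/mL mTOR, 400 nM GFP-4E-BP1, 7 μM ATP in HEPES pH 7.5 with 10 mM MnCl2; 1 h, room temperature. 10-point 1:3 compound series.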

Compound | IC50 [1] [µM] | Ki [2] [µM] | IC50 [3] [µM]
CN(C)S(=O)(=O)Nc1cc(-c2ccc3ncc(=O)n(-c4cccc(C(F)(F)F)c4)c3c2)cnc1Cl [Example 133, N-(2-chloro-5-(3-oxo-4-(3-(trifluoromethyl)phenyl)-3,4-dihydroquinoxalin-6-yl)pyridin-3-yl)dimethylaminosulfonamide] | 0.0094 | 0.0023 | 0.0005
C[C@@H]1CN(c2ccnc3ccc(-c4cnc(Cl)c(NS(C)(=O)=O)c4)cc23)C[C@H](C)O1 [Example 103, N-(2-chloro-5-(4-((2R,6S)-2,6-dimethyl-4-morpholinyl)-6-quinolinyl)-3-pyridinyl)methanesulfonamide] | 0.0556 | 0.0032 | 0.0102
CCN(CCC#N)c1ccnc2ccc(-c3cnc(Cl)c(NS(C)(=O)=O)c3)cc12 [Example 78, N-(2-chloro-5-(4-((2-cyanoethyl)(ethyl)amino)-6-quinolinyl)-3-pyridinyl)methanesulfonamide] | 0.193 | 0.0276 | 0.0117
CN(Cc1cccc(F)c1)c1ccnc2ccc(-c3cnc(Cl)c(NS(C)(=O)=O)c3)cc12 [Example 85, N-(2-chloro-5-(4-((3-fluorobenzyl)(methyl)amino)-6-quinolinyl)-3-pyridinyl)methanesulfonamide] | 1.66 | 0.0158 | 0.0621
O=S(=O)(Nc1cc(-c2ccc3nccc(N4CCOCC4)c3c2)cnc1Cl)c1cccnc1 [Example 101, N-(2-chloro-5-(4-(4-morpholinyl)-6-quinolinyl)-3-pyridinyl)-3-pyridinesulfonamide] | 0.0762 | 0.0027 | 0.0036
C[C@@H]1CN(c2ccnc3ccc(-c4cnc(Cl)c(NS(C)(=O)=O)c4)cc23)C[C@@H](C)O1 [Example 110, N-(2-chloro-5-(4-((2R,6R)-2,6-dimethyl-4-morpholinyl)-6-quinolinyl)-3-pyridinyl)methanesulfonamide] | 0.0141 | 0.0063 | 0.0051
COc1ncc(-c2ccc3nccc(N4CCOCC4)c3c2)cc1NS(C)(=O)=O [Example 119, N-(2-Methoxy-5-(4-morpholinoquinolin-6-yl)pyridin-3-yl)methanesulfonamide] | 0.0448 | 0.0047 | 0.0176
CS(=O)(=O)Nc1cc(-c2ccc3nccc(N4CCC(c5ccccc5)CC4)c3c2)cnc1Cl [Example 82, N-(2-chloro-5-(4-(4-phenyl-1-piperidinyl)-6-quinolinyl)-3-pyridinyl)methanesulfonamide] | 0.364 | 0.0052 | 0.0167
CN(C)S(=O)(=O)Nc1cc(-c2ccc3ncc(=O)n(-c4ccccc4)c3c2)cnc1Cl [Example 130, N-(2-chloro-5-(3-oxo-4-phenyl-3,4-dihydroquinoxalin-6-yl)pyridin-3-yl)dimethylaminosulfonamide] | 0.0087 | 0.0025 | 0.0012
CN(C)c1ccc(-c2ccnc3ccc(-c4cnc(Cl)c(NS(=O)(=O)c5ccc(F)cc5)c4)cc23)cc1 [Example 102, N-(2-chloro-5-(4-(4-(dimethylamino)phenyl)-6-quinolinyl)-3-pyridinyl)-4-fluorobenzenesulfonamide] | 0.0641 | 0.0013 | 0.0153
COc1ccc(OC)c(CNc2ccnc3ccc(-c4cnc(Cl)c(NS(C)(=O)=O)c4)cc23)c1 [Example 87, N-(2-chloro-5-(4-((2,5-dimethoxybenzyl)amino)-6-quinolinyl)-3-pyridinyl)methanesulfonamide] | 1.42 | 0.0332 | 0.295
CS(=O)(=O)Nc1cc(-c2ccc3ncc(N4CCOCC4)nc3c2)cnc1Cl [Example 92, N-(2-chloro-5-(3-(4-morpholinyl)-6-quinoxalinyl)-3-pyridinyl)methanesulfonamide] | 0.084 | 0.0028 | 0.0283
COCCN(C)S(=O)(=O)Nc1cc(-c2ccc3nccc(N4CCOCC4)c3c2)cnc1Cl [Example 123, N′-(2-Chloro-5-(4-(4-morpholinyl)-6-quinolinyl)-3-pyridinyl)-N-(2-methoxyethyl)-N-methylsulfamide] | 0.037 | 0.0054 | 0.0169
CC(c1ccccc1)N1CCN(c2ccnc3ccc(-c4cnc(Cl)c(NS(C)(=O)=O)c4)cc23)CC1 (stereo not drawn) [Example 83, N-(2-chloro-5-(4-(4-(1-phenylethyl)-1-piperazinyl)-6-quinolinyl)-3-pyridinyl)methanesulfonamide] | 0.758 | 0.0136 | 0.0821
COc1cc(-c2ccnc3ccc(-c4cnc(Cl)c(NS(C)(=O)=O)c4)cc23)ccn1 [Example 106, N-(2-chloro-5-(4-(2-methoxy-4-pyridinyl)-6-quinolinyl)-3-pyridinyl)methanesulfonamide] | 0.0259 | 0.0019 | 0.0034
CS(=O)(=O)Nc1cc(-c2ccc3nccc(-c4ccnc(C(F)(F)F)c4)c3c2)cnc1Cl [Example 111, N-(2-chloro-5-(4-(2-(trifluoromethyl)-4-pyridinyl)-6-quinolinyl)-3-pyridinyl)methanesulfonamide] | 0.0261 | 0.003 | 0.0028
CCN(Cc1noc(C2CC2)n1)c1ccnc2ccc(-c3cnc(Cl)c(NS(C)(=O)=O)c3)cc12 [Example 77, N-(2-chloro-5-(4-(((5-cyclopropyl-1,2,4-oxadiazol-3-yl)methyl)(ethyl)amino)-6-quinolinyl)-3-pyridinyl)methanesulfonamide] | 1.93 | 0.0184 | 0.0677
CN(C)S(=O)(=O)Nc1cc(N2CCc3nccc(N4CCOCC4)c3C2)cnc1Cl [Example 136, N′-(2-Chloro-5-(4-(4-morpholinyl)-7,8-dihydro-1,6-naphthyridin-6(5H)-yl)-3-pyridinyl)-N,N-dimethylsulfamide] | 0.289 | 0.111 | 0.065
CS(=O)(=O)Nc1cc(-c2ccc3nccc(N4Cc5ccc(F)cc5C4)c3c2)cnc1Cl [Example 86, N-(2-chloro-5-(4-(5-fluoro-1,3-dihydro-2H-isoindol-2-yl)-6-quinolinyl)-3-pyridinyl)methanesulfonamide] | 0.667 | 0.016 | 0.162
COC(C)(C)CNc1ccnc2ccc(-c3cnc(Cl)c(NS(C)(=O)=O)c3)cc12 [Example 79, N-(2-chloro-5-(4-((2-methoxy-2-methylpropyl)amino)-6-quinolinyl)-3-pyridinyl)methanesulfonamide] | 2.83 | 0.0823 | 0.363
O=S(=O)(Nc1cc(-c2ccc3nccc(OC4CCSC4)c3c2)cnc1Cl)c1ccc(F)cc1 (stereo not drawn) [Example 108, N-(2-chloro-5-(4-(tetrahydro-3-thiophenyloxy)-6-quinolinyl)-3-pyridinyl)-4-fluorobenzenesulfonamide] | 0.306 | 0.0023 | 0.0079
Cc1ccccc1OC1CCN(c2ccnc3ccc(-c4cnc(Cl)c(NS(C)(=O)=O)c4)cc23)C1 (stereo not drawn) [Example 80, N-(2-chloro-5-(4-(3-(2-methylphenoxy)-1-pyrrolidinyl)-6-quinolinyl)-3-pyridinyl)methanesulfonamide] | 0.704 | 0.0294 | 0.389
